Source: the NIST ThermoML archive (doi:10.1021/acs.jced.7b00119)

How the values were obtained:
[1] = excess molar enthalpy (molar enthalpy of mixing); xn = mol fraction of the nth substance listed; details: Liquid, Flow calorimetry
[2] = Liquid, Closed cell (Static) method

CC(=O)N(C)C [N,N-dimethylethanamide] + Cc1ccccc1
[1]
Details | excess molar enthalpy [kcal/mol]
363.15 K, 1955 kPa, x2 = 0.0436 | 0.00378
363.15 K, 1955 kPa, x2 = 0.0878 | 0.00686
363.15 K, 1955 kPa, x2 = 0.1327 | 0.0102
363.15 K, 1955 kPa, x2 = 0.1781 | 0.0134
363.15 K, 1955 kPa, x2 = 0.2242 | 0.0163
363.15 K, 1955 kPa, x2 = 0.2709 | 0.0193
363.15 K, 1955 kPa, x2 = 0.3182 | 0.0232
363.15 K, 1955 kPa, x2 = 0.3662 | 0.0263
363.15 K, 1955 kPa, x2 = 0.4149 | 0.0292
363.15 K, 1955 kPa, x2 = 0.4643 | 0.0318
363.15 K, 1955 kPa, x2 = 0.5144 | 0.0344
363.15 K, 1955 kPa, x2 = 0.5652 | 0.0361
363.15 K, 1955 kPa, x2 = 0.6168 | 0.0368
363.15 K, 1955 kPa, x2 = 0.6691 | 0.038
363.15 K, 1955 kPa, x2 = 0.7222 | 0.0385
363.15 K, 1955 kPa, x2 = 0.7761 | 0.0375
363.15 K, 1955 kPa, x2 = 0.8308 | 0.0349
363.15 K, 1955 kPa, x2 = 0.8864 | 0.0289
363.15 K, 1955 kPa, x2 = 0.9428 | 0.0178
413.15 K, 1824 kPa, x2 = 0.022 | 0.00251
413.15 K, 1824 kPa, x2 = 0.0441 | 0.00528
413.15 K, 1824 kPa, x2 = 0.0887 | 0.00963
413.15 K, 1824 kPa, x2 = 0.1338 | 0.014
413.15 K, 1824 kPa, x2 = 0.1796 | 0.0186
413.15 K, 1824 kPa, x2 = 0.2259 | 0.0225
413.15 K, 1824 kPa, x2 = 0.2728 | 0.0265
413.15 K, 1824 kPa, x2 = 0.3204 | 0.0311
413.15 K, 1824 kPa, x2 = 0.3686 | 0.0354
413.15 K, 1824 kPa, x2 = 0.4174 | 0.0406
413.15 K, 1824 kPa, x2 = 0.4668 | 0.0449
413.15 K, 1824 kPa, x2 = 0.5169 | 0.0485
413.15 K, 1824 kPa, x2 = 0.5677 | 0.0523
413.15 K, 1824 kPa, x2 = 0.6192 | 0.0554
413.15 K, 1824 kPa, x2 = 0.6714 | 0.0571
413.15 K, 1824 kPa, x2 = 0.7243 | 0.0576
413.15 K, 1824 kPa, x2 = 0.7779 | 0.0557
413.15 K, 1824 kPa, x2 = 0.8323 | 0.0497
413.15 K, 1824 kPa, x2 = 0.8874 | 0.0406
413.15 K, 1824 kPa, x2 = 0.9433 | 0.0246
413.15 K, 1824 kPa, x2 = 0.9715 | 0.0134

CC(=O)N(C)C [N,N-dimethylethanamide] + c1ccccc1
[1], 413.15 K, 1824 kPa
Details | excess molar enthalpy [kcal/mol]
x2 = 0.0261 | -0.0033
x2 = 0.0522 | -0.00617
x2 = 0.1042 | -0.0116
x2 = 0.1817 | -0.0187
x2 = 0.2586 | -0.0239
x2 = 0.3604 | -0.0277
x2 = 0.4361 | -0.0275
x2 = 0.5114 | -0.0241
x2 = 0.5861 | -0.0193
x2 = 0.6603 | -0.0129
x2 = 0.7584 | -0.00356
x2 = 0.8315 | 0.00311
x2 = 0.904 | 0.00703
x2 = 0.9521 | 0.00629
x2 = 0.9761 | 0.00411

c1ccccc1 [benzene]
Details | vapor or sublimation pressure [kPa]
[2], 328.15 K | 43.65

ClCCl [dichloromethane]
Details | vapor or sublimation pressure [kPa]
[2], 333.15 K | 197.94

ClCCl [dichloromethane] + CC(=O)N(C)C
[1], 323.15 K, 1273 kPa
Details | excess molar enthalpy [kcal/mol]
x1 = 0.0709 | -0.101
x1 = 0.1387 | -0.188
x1 = 0.2037 | -0.265
x1 = 0.2659 | -0.328
x1 = 0.3257 | -0.379
x1 = 0.3831 | -0.412
x1 = 0.4383 | -0.438
x1 = 0.4914 | -0.454
x1 = 0.5425 | -0.458
x1 = 0.5917 | -0.456
x1 = 0.6391 | -0.44
x1 = 0.6849 | -0.417
x1 = 0.7291 | -0.386
x1 = 0.7718 | -0.348
x1 = 0.813 | -0.303
x1 = 0.8529 | -0.252
x1 = 0.8914 | -0.195
x1 = 0.9288 | -0.132
x1 = 0.965 | -0.0681

CCO [ethanol]
Details | vapor or sublimation pressure [kPa]
[2], 353.15 K | 108.42

CCOC(C)=O [ethyl acetate]
Details | vapor or sublimation pressure [kPa]
[2], 353.15 K | 111.76

CCCCCCC [heptane]
Details | vapor or sublimation pressure [kPa]
[2], 353.15 K | 57.09

CCCCCC [hexane]
Details | vapor or sublimation pressure [kPa]
[2], 353.15 K | 142.4

CO [methanol]
Details | vapor or sublimation pressure [kPa]
[2], 343.15 K | 125.65

C=CCCCCCC [oct-1-ene]
[2]
Details | vapor or sublimation pressure [kPa]
328.15 K | 10.12
363.15 K | 39.2

C=CCCCCCC [oct-1-ene] + CC(=O)N(C)C
[1], 363.15 K, 1858 kPa
Details | excess molar enthalpy [kcal/mol]
x1 = 0.03 | 0.0437
x1 = 0.0612 | 0.0906
x1 = 0.0938 | 0.135
x1 = 0.1279 | 0.176
x1 = 0.1636 | 0.213
x1 = 0.201 | 0.249
x1 = 0.2401 | 0.281
x1 = 0.2812 | 0.31
x1 = 0.3244 | 0.336
x1 = 0.3698 | 0.357
x1 = 0.4177 | 0.37
x1 = 0.4682 | 0.379
x1 = 0.5215 | 0.383
x1 = 0.5779 | 0.38
x1 = 0.6377 | 0.368
x1 = 0.7013 | 0.344
x1 = 0.7688 | 0.304
x1 = 0.8408 | 0.243
x1 = 0.9177 | 0.149

Cc1ccccc1 [toluene]
Details | vapor or sublimation pressure [kPa]
[2], 353.15 K | 38.92
